We go through one compound from ChEMBL document CHEMBL1667735, “Human cytochrome P450 liability studies of trans-dihydronarciclasine: a readily available, potent, and selective cancer cell growth inhibitor” (J Nat Prod, 2011).

One data set concerns the target T1, Aromatase (Homo sapiens, UniProt P11511).
T1 sequence (P11511 whole entry): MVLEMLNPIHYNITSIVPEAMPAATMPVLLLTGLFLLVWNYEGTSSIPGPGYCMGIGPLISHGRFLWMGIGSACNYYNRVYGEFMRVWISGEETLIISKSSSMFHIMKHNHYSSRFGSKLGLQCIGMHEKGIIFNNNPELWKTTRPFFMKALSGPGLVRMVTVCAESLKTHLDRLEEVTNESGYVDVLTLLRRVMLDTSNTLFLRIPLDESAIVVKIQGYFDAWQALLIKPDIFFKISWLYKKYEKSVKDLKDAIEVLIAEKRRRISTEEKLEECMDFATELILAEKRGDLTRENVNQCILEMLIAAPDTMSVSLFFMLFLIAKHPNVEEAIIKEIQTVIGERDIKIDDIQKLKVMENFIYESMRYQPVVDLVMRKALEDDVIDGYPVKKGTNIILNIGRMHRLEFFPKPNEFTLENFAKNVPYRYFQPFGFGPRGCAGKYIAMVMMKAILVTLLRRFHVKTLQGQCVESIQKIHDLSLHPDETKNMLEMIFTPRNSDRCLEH
In words: Inhibition of human CYP19 at 10 uM. Format: ADME.

For another data set, the target named is T2, Cytochrome P450 1A1 (Homo sapiens, UniProt P04798).
T2 sequence (P04798 whole entry): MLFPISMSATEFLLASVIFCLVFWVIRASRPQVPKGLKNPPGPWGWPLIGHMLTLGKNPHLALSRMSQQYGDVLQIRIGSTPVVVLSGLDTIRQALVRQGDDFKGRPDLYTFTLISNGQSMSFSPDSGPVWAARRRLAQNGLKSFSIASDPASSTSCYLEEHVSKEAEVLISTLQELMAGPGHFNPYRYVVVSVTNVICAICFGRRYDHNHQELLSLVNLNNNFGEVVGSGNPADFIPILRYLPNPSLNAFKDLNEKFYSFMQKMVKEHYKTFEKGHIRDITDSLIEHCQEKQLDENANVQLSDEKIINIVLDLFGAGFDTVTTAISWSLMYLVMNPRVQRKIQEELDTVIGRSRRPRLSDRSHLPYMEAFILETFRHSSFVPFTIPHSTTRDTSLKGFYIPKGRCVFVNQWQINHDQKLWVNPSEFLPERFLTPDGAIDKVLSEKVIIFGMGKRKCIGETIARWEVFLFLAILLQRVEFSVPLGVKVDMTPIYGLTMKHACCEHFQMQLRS
In words: Inhibition of human CYP1A1 at 10 uM. Format: ADME.

`O=C1N[C@H]2[C@H](O)[C@H](O)[C@@H](O)C[C@@H]2c2cc3c(c(O)c21)OCO3`: the “inhibition (INH)” value against Aromatase and on Cytochrome P450 1A1 was “Not Active” throughout.
